Reference: ChEMBL document CHEMBL1201862, “PubChem BioAssay data set” (2004)
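48-hour exposure; five concentrations; linearly interpolated endpoints. The concentration for 50% growth inhibition is given as GI50.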 Calls of active or inactive are those of the source. Cut-off read from the data, not from the text of the source: active = GI50 up to about 1.1 µM and inactive = higher.

Tests used:
Assay in all cases: NCI-60 cell line screen, 48 h
SK-MEL-2 = test system: SK-MEL-2
SR = test system: SR
A549 = test system: A549
MDA-MB-435 = test system: MDA-MB-435
OVCAR-4 = test system: OVCAR-4
OVCAR-3 = test system: OVCAR-3
OVCAR-8 = test system: OVCAR-8
HCT-15 = test system: HCT-15
Hs-578T = test system: Hs-578T
HL-60 = test system: HL-60
HOP-92 = test system: HOP-92
SK-MEL-28 = test system: SK-MEL-28
SF-295 = test system: SF-295
SF-539 = test system: SF-539
COLO 205 = test system: COLO 205
CCRF-CEM = test system: CCRF-CEM
RPMI-8226 = test system: RPMI-8226
MDA-N = test system: MDA-N
U-251 = test system: U-251
SF-268 = test system: SF-268
HCC 2998 = test system: HCC 2998
CAKI-1 = test system: CAKI-1
K562 = test system: K562
KM12 = test system: KM12
SK-MEL-5 = test system: SK-MEL-5
RXF 393 = test system: RXF 393
NCI-H460 = test system: NCI-H460
UO-31 = test system: UO-31
MDA-MB-231 = test system: MDA-MB-231
PC-3 = test system: PC-3
ACHN = test system: ACHN
DU-145 = test system: DU-145
IGROV-1 = test system: IGROV-1
NCI/ADR-RES = test system: NCI/ADR-RES
HT-29 = test system: HT-29
SW-620 = test system: SW-620
SNB-19 = test system: SNB-19
M14 = test system: M14
TK-10 = test system: TK-10
T47D = test system: T47D
SK-OV-3 = test system: SK-OV-3
MOLT-4 = test system: MOLT-4
NCI-H23 = test system: NCI-H23
A498 = test system: A498
LOX IMVI = test system: LOX IMVI
MCF7 = test system: MCF7
UACC-257 = test system: UACC-257
HOP-62 = test system: HOP-62
SNB-75 = test system: SNB-75
UACC-62 = test system: UACC-62
OVCAR-5 = test system: OVCAR-5
EKVX = test system: EKVX
BT-549 = test system: BT-549
NCI-H226 = test system: NCI-H226
SN12C = test system: SN12C
786-0 = test system: 786-0
Malme-3M = test system: Malme-3M
HCT-116 = test system: HCT-116

## CCOC(=O)c1csc(NC(=O)CN2CCOCC2)n1
SK-MEL-2
  GI50: > 100 µM (inactive)
SR
  GI50: > 100 µM (inactive)
A549
  GI50: > 100 µM (inactive)
MDA-MB-435
  GI50: > 100 µM (inactive)
OVCAR-4
  GI50: > 100 µM (inactive)
OVCAR-3
  GI50: > 100 µM (inactive)
OVCAR-8
  GI50: > 100 µM (inactive)
HCT-15
  GI50: > 100 µM
Hs-578T
  GI50: > 100 µM (inactive)
HL-60
  GI50: > 100 µM (inactive)
HOP-92
  GI50: > 100 µM (inactive)
SK-MEL-28
  GI50: > 100 µM (inactive)
SF-295
  GI50: > 100 µM (inactive)
SF-539
  GI50: > 100 µM (inactive)
COLO 205
  GI50: > 100 µM (inactive)
CCRF-CEM
  GI50: > 100 µM (inactive)
RPMI-8226
  GI50: > 100 µM (inactive)
MDA-N
  GI50: > 100 µM (inactive)
U-251
  GI50: > 100 µM (inactive)
SF-268
  GI50: > 100 µM (inactive)
HCC 2998
  GI50: > 100 µM (inactive)
CAKI-1
  GI50: > 100 µM (inactive)
K562
  GI50: > 100 µM (inactive)
KM12
  GI50: > 100 µM (inactive)
SK-MEL-5
  GI50: > 100 µM (inactive)
RXF 393
  GI50: > 100 µM (inactive)
NCI-H460
  GI50: > 100 µM (inactive)
UO-31
  GI50: > 100 µM (inactive)
MDA-MB-231
  GI50: > 100 µM (inactive)
PC-3
  GI50: > 100 µM (inactive)
ACHN
  GI50: > 100 µM (inactive)
DU-145
  GI50: > 100 µM (inactive)
IGROV-1
  GI50: > 100 µM (inactive)
NCI/ADR-RES
  GI50: > 100 µM (inactive)
HT-29
  GI50: > 100 µM (inactive)
SW-620
  GI50: > 100 µM (inactive)
SNB-19
  GI50: > 100 µM (inactive)
M14
  GI50: > 100 µM (inactive)
TK-10
  GI50: > 100 µM (inactive)
T47D
  GI50: > 100 µM (inactive)
SK-OV-3
  GI50: > 100 µM (inactive)
MOLT-4
  GI50: 17.1 µM (inactive)
NCI-H23
  GI50: > 100 µM (inactive)
A498
  GI50: > 100 µM (inactive)
LOX IMVI
  GI50: > 100 µM (inactive)
MCF7
  GI50: > 100 µM (inactive)
UACC-257
  GI50: > 100 µM (inactive)
HOP-62
  GI50: > 100 µM (inactive)
SNB-75
  GI50: > 100 µM (inactive)
UACC-62
  GI50: > 100 µM (inactive)
OVCAR-5
  GI50: > 100 µM (inactive)
EKVX
  GI50: > 100 µM (inactive)

## COc1ccc(-c2csc3c2-n2cccc2C3=O)cc1
SK-MEL-2
  GI50: 0.366 µM (active)
SR
  GI50: 0.0206 µM (active)
BT-549
  GI50: 8.93 µM (inactive)
NCI-H226
  GI50: 4.46 µM (inactive)
A549
  GI50: 0.159 µM (active)
MDA-MB-435
  GI50: 0.0132 µM (active)
OVCAR-4
  GI50: 2.07 µM (inactive)
OVCAR-3
  GI50: 0.0416 µM (active)
OVCAR-8
  GI50: 0.0867 µM (active)
HCT-15
  GI50: 0.0653 µM
HL-60
  GI50: < 0.0176 µM (active)
HOP-92
  GI50: 3.12 µM (inactive)
SK-MEL-28
  GI50: 0.406 µM (active)
SF-295
  GI50: 0.0395 µM (active)
SF-539
  GI50: 0.0304 µM (active)
COLO 205
  GI50: 0.215 µM (active)
CCRF-CEM
  GI50: 0.0242 µM (active)
RPMI-8226
  GI50: 0.0425 µM (active)
MDA-N
  GI50: 0.0135 µM (active)
U-251
  GI50: 0.0326 µM (active)
SF-268
  GI50: 1.75 µM (inactive)
SN12C
  GI50: 0.0885 µM (active)
HCC 2998
  GI50: 0.344 µM (active)
CAKI-1
  GI50: 0.268 µM (active)
K562
  GI50: < 0.0285 µM (active)
KM12
  GI50: 0.0401 µM (active)
SK-MEL-5
  GI50: 0.0581 µM (active)
RXF 393
  GI50: 0.07 µM (active)
NCI-H460
  GI50: 0.11 µM (active)
UO-31
  GI50: 0.11 µM (active)
MDA-MB-231
  GI50: < 0.0375 µM (active)
PC-3
  GI50: < 0.0367 µM (active)
ACHN
  GI50: 0.805 µM (active)
786-0
  GI50: 0.303 µM (active)
Malme-3M
  GI50: 28.8 µM (inactive)
DU-145
  GI50: 0.175 µM (active)
IGROV-1
  GI50: 0.258 µM (active)
NCI/ADR-RES
  GI50: < 0.0204 µM (active)
HT-29
  GI50: 0.028 µM (active)
SW-620
  GI50: < 0.0232 µM (active)
SNB-19
  GI50: 0.0745 µM (active)
M14
  GI50: 0.0346 µM (active)
SK-OV-3
  GI50: 0.216 µM (active)
MOLT-4
  GI50: 0.0444 µM (active)
NCI-H23
  GI50: 0.438 µM (active)
A498
  GI50: 0.698 µM (active)
LOX IMVI
  GI50: 0.0458 µM (active)
MCF7
  GI50: 0.18 µM (active)
HOP-62
  GI50: 0.0656 µM (active)
SNB-75
  GI50: 0.0964 µM (active)
UACC-62
  GI50: 0.0269 µM (active)
HCT-116
  GI50: 0.0461 µM (active)
OVCAR-5
  GI50: 34 µM (inactive)
EKVX
  GI50: 0.767 µM (active)

## CCOC(=O)C(=CNC(=S)N/N=C1\C(=O)Nc2ccccc21)C(=O)OCC
SK-MEL-2
  GI50: > 100 µM (inactive)
SR
  GI50: 69.3 µM (inactive)
NCI-H226
  GI50: > 100 µM (inactive)
A549
  GI50: > 100 µM (inactive)
MDA-MB-435
  GI50: > 100 µM (inactive)
OVCAR-4
  GI50: > 100 µM (inactive)
OVCAR-3
  GI50: 46.2 µM (inactive)
OVCAR-8
  GI50: 89.9 µM (inactive)
Hs-578T
  GI50: 48.2 µM (inactive)
HL-60
  GI50: 31 µM (inactive)
HOP-92
  GI50: 82 µM (inactive)
SK-MEL-28
  GI50: > 100 µM (inactive)
SF-295
  GI50: > 100 µM (inactive)
SF-539
  GI50: > 100 µM (inactive)
COLO 205
  GI50: 99.1 µM (inactive)
CCRF-CEM
  GI50: 41.9 µM (inactive)
RPMI-8226
  GI50: > 100 µM (inactive)
MDA-N
  GI50: > 100 µM (inactive)
U-251
  GI50: > 100 µM (inactive)
SF-268
  GI50: 43.8 µM (inactive)
SN12C
  GI50: > 100 µM (inactive)
HCC 2998
  GI50: > 100 µM (inactive)
CAKI-1
  GI50: 21.1 µM (inactive)
K562
  GI50: > 100 µM (inactive)
KM12
  GI50: 52 µM (inactive)
SK-MEL-5
  GI50: 90.8 µM (inactive)
RXF 393
  GI50: > 100 µM (inactive)
NCI-H460
  GI50: 47.8 µM (inactive)
UO-31
  GI50: 29 µM (inactive)
MDA-MB-231
  GI50: > 100 µM (inactive)
PC-3
  GI50: > 100 µM (inactive)
ACHN
  GI50: > 100 µM (inactive)
786-0
  GI50: > 100 µM (inactive)
DU-145
  GI50: > 100 µM (inactive)
NCI/ADR-RES
  GI50: 48.2 µM (inactive)
HT-29
  GI50: 84.3 µM (inactive)
SW-620
  GI50: > 100 µM (inactive)
SNB-19
  GI50: > 100 µM (inactive)
M14
  GI50: > 100 µM (inactive)
TK-10
  GI50: 59.2 µM (inactive)
T47D
  GI50: > 100 µM (inactive)
SK-OV-3
  GI50: > 100 µM (inactive)
MOLT-4
  GI50: 84.7 µM (inactive)
NCI-H23
  GI50: > 100 µM (inactive)
A498
  GI50: 41.9 µM (inactive)
LOX IMVI
  GI50: > 100 µM (inactive)
MCF7
  GI50: 92.9 µM (inactive)
UACC-257
  GI50: > 100 µM (inactive)
HOP-62
  GI50: > 100 µM (inactive)
SNB-75
  GI50: 21.5 µM (inactive)
UACC-62
  GI50: > 100 µM (inactive)
HCT-116
  GI50: > 100 µM (inactive)
OVCAR-5
  GI50: > 100 µM (inactive)
